According to the supplement of paper PMC10307832:

Experiments:
Test in all cases: relative viability (nuclei count vs DMSO), 5 days (fraction); higher = more cells survive
KIN001-266 + Pemetrexed = compound: CCN1CCC(CC1)N2C=C(N=N2)CNC3=CC4=C(C(=CN=C4C(=C3)Cl)C#N)NC5=CC(=C(C=C5)F)Cl [KIN001-266] + Nc1nc2[nH]cc(CCc3ccc(C(=O)N[C@@H](CCC(=O)O)C(=O)O)cc3)c2c(=O)[nH]1 [Pemetrexed] (partner 0.2 µM)
Outline: (§1)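 Lung cancer cell lines were pin-tool dosed in 1536-well plates on the day after seeding, with either a lone drug or a fixed anchor-drug dose plus five library-drug doses (not always all listed) in √10 steps. Nuclei were counted on 4× images after 5 days. Relative viability is the ratio of treated-well to vehicle-well nuclei counts, with each value a median of duplicate plates.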

KIN001-266 + Alpelisib = compound: CCN1CCC(CC1)N2C=C(N=N2)CNC3=CC4=C(C(=CN=C4C(=C3)Cl)C#N)NC5=CC(=C(C=C5)F)Cl [KIN001-266] + Cc1nc(NC(=O)N2CCC[C@H]2C(N)=O)sc1-c1ccnc(C(C)(C)C(F)(F)F)c1 [Alpelisib] (partner 2 µM)
Outline: as §1

KIN001-266 + Olaparib = compound: CCN1CCC(CC1)N2C=C(N=N2)CNC3=CC4=C(C(=CN=C4C(=C3)Cl)C#N)NC5=CC(=C(C=C5)F)Cl [KIN001-266] + O=C(c1cc(Cc2n[nH]c(=O)c3ccccc23)ccc1F)N1CCN(C(=O)C2CC2)CC1 [Olaparib] (partner 8 µM)
Outline: as §1

KIN001-266 + Bortezomib = compound: CCN1CCC(CC1)N2C=C(N=N2)CNC3=CC4=C(C(=CN=C4C(=C3)Cl)C#N)NC5=CC(=C(C=C5)F)Cl [KIN001-266] + CC(C)C[C@H](NC(=O)[C@H](Cc1ccccc1)NC(=O)c1cnccn1)B(O)O [Bortezomib] (partner 0.002 µM)
Outline: as §1

Cell Line	relative viability (KIN001-266 + Pemetrexed; first compound 0.08 µM)	relative viability (KIN001-266 + Pemetrexed; first compound 0.253 µM)	relative viability (KIN001-266 + Pemetrexed; first compound 0.8 µM)	relative viability (KIN001-266 + Pemetrexed; first compound 2.53 µM)	relative viability (KIN001-266 + Pemetrexed; first compound 8 µM)	relative viability (KIN001-266 + Alpelisib; first compound 0.08 µM)	relative viability (KIN001-266 + Alpelisib; first compound 0.253 µM)	relative viability (KIN001-266 + Alpelisib; first compound 0.8 µM)	relative viability (KIN001-266 + Alpelisib; first compound 2.53 µM)	relative viability (KIN001-266 + Alpelisib; first compound 8 µM)	relative viability (KIN001-266 + Olaparib; first compound 0.08 µM)	relative viability (KIN001-266 + Olaparib; first compound 0.253 µM)	relative viability (KIN001-266 + Olaparib; first compound 0.8 µM)	relative viability (KIN001-266 + Olaparib; first compound 2.53 µM)	relative viability (KIN001-266 + Olaparib; first compound 8 µM)	relative viability (KIN001-266 + Bortezomib; first compound 0.08 µM)	relative viability (KIN001-266 + Bortezomib; first compound 0.253 µM)	relative viability (KIN001-266 + Bortezomib; first compound 0.8 µM)	relative viability (KIN001-266 + Bortezomib; first compound 2.53 µM)	relative viability (KIN001-266 + Bortezomib; first compound 8 µM)
NCI-H1993	0.562	0.554	0.637	0.586	0.596	0.664	0.682	0.692	0.642	0.634	1.04	0.937	1.16	0.887	0.73	1.04	1.29	1.06	1.01	0.858
NCI-H2009	1.03	1.04	1.01	0.996	0.903	1.21	1.17	1.19	1.03	0.983	0.721	0.667	0.657	0.65	0.321	1.02	1.06	1.09	0.95	0.658
NCI-H2023	0.233	0.192	0.296	0.221	0.201	0.672	0.64	0.588	0.598	0.618	0.465	0.489	0.528	0.47	0.411	1.08	1.1	1.2	1.03	0.76
NCI-H2085	0.896	0.884	0.738	0.908	0.798	0.941	0.983	0.959	1	0.795	0.763	0.791	0.725	0.721	0.598	1.01	1.04	0.888	1.14	0.916
NCI-H2087	0.646	0.716	0.637	0.581	0.587	1.06	1.02	1.04	1.06	0.758	0.616	0.494	0.654	0.374	0.346	0.761	0.87	0.717	0.719	0.609
NCI-H2126	0.713	0.73	0.758	0.687	0.619	0.77	0.76	0.774	0.703	0.76	0.896	0.925	0.943	0.848	0.842	1.16	1.12	1.15	1.13	1.14
NCI-H2228	0.329	0.325	0.35	0.322	0.352	0.757	0.95	0.771	0.549	0.622	0.692	0.735	0.682	0.727	0.496	1.03	0.935	1.09	1.33	0.796
NCI-H2347	0.455	0.463	0.43	0.452	0.433	1.03	1.01	1.03	0.996	0.578	0.619	0.593	0.507	0.568	0.479	1.16	1.03	0.905	0.858	0.611
NCI-H2405	1.08	1.04	1.2	0.84	0.932	0.807	0.719	0.759	0.74	0.38	0.889	0.905	0.906	0.853	0.642	0.99	1	0.984	0.925	0.809
NCI-H3122	0.206	0.2	0.198	0.197	0.214	0.841	0.909	0.699	0.728	0.767	0.588	0.689	0.636	0.576	0.524	0.996	1.03	1.03	0.969	0.974
PC-3 [JPC-3]	1.08	1.09	1.14	1.1	0.965	1.04	1.02	0.957	0.983	0.896	1.09	1.21	1.08	1.14	0.963	0.786	0.846	0.813	0.736	0.764
PC-14	0.161	0.133	0.164	0.113	0.186	0.927	0.923	0.918	0.906	0.663	0.24	0.354	0.251	0.312	0.141	0.881	0.816	0.892	0.759	0.297
RERF-LC-KJ	0.475	0.507	0.475	0.499	0.467	0.863	0.785	0.856	0.832	0.569	0.974	0.952	0.858	0.762	0.649	1.11	1.23	1.08	1.01	0.82
SK-LU-1	1.03	1	1.06	0.962	0.714	1.24	1.07	1.14	0.927	0.582	0.557	0.427	0.489	0.373	0.416	1.39	1.14	1.31	1.12	1.04
SW 1573	0.809	0.792	0.94	0.713	0.751	0.789	0.775	0.709	0.764	0.693	0.459	0.5	0.542	0.404	0.313	1.13	0.914	1.09	0.92	0.808
UMC-11	0.773	0.728	0.757	0.757	0.707	0.927	0.931	1.11	0.952	0.604	0.351	0.515	0.398	0.31	0.319	0.703	0.543	0.71	0.638	0.738
